Earlier results as cited in article PMC4168221 (Clinical Drug Investigation, 2014).

Assays:
[1] = test system: urinary glucose excretion; conditions: cited from earlier work
[2] = cited from earlier work

SMILES	UGE in each estimated GFR (eGFR) class [1]	C max and AUC as a function of renal function [2]
OC[C@H]1O[C@@H](c2ccc(F)c(Cc3cc4ccccc4s3)c2)[C@H](O)[C@@H](O)[C@@H]1O [Ipragliflozin]	significantly increased	–
CCOc1ccc(Cc2cc([C@@H]3O[C@H](CO)[C@@H](O)[C@H](O)[C@H]3O)ccc2Cl)cc1 [dapagliflozin]	–	increased incrementally with declining renal function
